The source of these data is US10987359B2, “Oxadiazepinone derivatives and methods of treating hepatitis B infections” (priority 2016, dated 2021).

SMILES strings stand for the structures. pEC50: −log10 of the molar value.

The assay relates to HBV. Briefly: HBV replication inhibition assay (BDNA assay) in HepG2.2.15 cells. Format: cell-based. Particulars: Hepatitis B virus, HepG2.2.15, HBV replication assay (BDNA assay), HepG2.2.15 cells; read-out: DNA EC50. The protocol: HBV replication inhibition by the disclosed compounds were determined in cells infected or transfected with HBV or cells with stably integrated HBV, such as HepG2.2.15 cells (Sells et al. 1987). In this example, HepG2.2.15 cells were maintained in cell culture medium containing 10% fetal bovine serum (FBS), Geneticin, L-glutamine, penicillin and streptomycin. HepG2.2.15 cells were seeded in 96-well plates at a density of 40,000 cells/well and were treated with serially diluted compounds at a final DMSO concentration of 0.5% either alone or in combination by adding drugs in a checker box format. Cells were incubated with compounds for three days, after which medium was removed and fresh medium containing compounds was added to cells and incubated for another three days. At day 6, supernatant was removed and treated with DNase at 37° C. for 60 minutes, followed by enzyme inactivation at 75° C. for 15 minutes. Encapsidated HBV DNA was released from the virions and covalently linked HBV polymerase by incubating in lysis buffer (Affymetrix QS0010) containing 2.5 μg proteinase K at 50° C. for 40 minutes. HBV DNA was denatured by addition of 0.2 M NaOH and detected using a branched DNA (BDNA) QuantiGene assay kit according to manufacturer recommendation (Affymetrix). HBV DNA levels were also quantified using qPCR, based on amplification of encapsidated HBV DNA extraction with QuickExtraction Solution (Epicentre Biotechnologies) and amplification of HBV DNA using HBV specific PCR probes that can hybridize to HBV DNA and a fluorescently labeled probe for quantitation. In addition, cell viability of HepG2.2.15 cells incubated with test compounds alone or in combination was determined by using CellTitre-Glo reagent according to the manufacturer protocol (Promega). The mean background signal from wells containing only culture medium was subtracted from all other samples, and percent inhibition at each compound concentration was calculated by normalizing to signals from HepG2.2.15 cells treated with 0.5% DMSO using equation E1. % inhibition=(DMSOave−Xi)/DMSOave×100% E1: […]
where DMSOave is the mean signal calculated from the wells that were treated with DMSO control (0% inhibition control) and Xi is the signal measured from the individual wells. EC50 values, effective concentrations that achieved 50% inhibitory effect, were determined by non-linear fitting using Graphpad Prism software (San Diego, Calif.) and equation E2: Y=Y min+(Y max−Y min)/(1+10(Log EC50−X)×HillSlope) E2: […]
where Y represents percent inhibition values and X represents the logarithm of compound concentrations.
Selected disclosed compounds were assayed in the HBV replication assay (BDNA assay), as described above, and a representative group of these active compounds is shown in Table 7. […] In Table 7, “A” represents 1<EC50≤100; “B” represents 100<EC50≤500; “C” represents 500<EC50≤1000; and “D” represents EC50>1000.

For the compound `CN1OC(CO)Cn2nc3c(c2C1=O)CN(C(=O)Nc1cc(Br)ccc1F)CC3` (single isomer, unassigned) [Compound 141_E1, (S*)—N-(5-bromo-2-fluorophenyl)-4-(hydroxymethyl)-2-methyl-1-oxo-1,4,5,8,9,11-hexahydropyrido[4′,3′:3,4]pyrazolo[5,1-d][1,2,5]oxadiazepine-10(2H)-carboxamide], the negative-log EC50 (pEC50) was 7.00 to 9.00.

As to `Cc1c(F)ccc(NC(=O)N2CCc3nn4c(c3C2)C(=O)N(C)OC(CO)C4)c1F` (single isomer, unassigned) [Compound 142_E1, (S*)—N-(2,4-difluoro-3-methylphenyl)-4-(hydroxymethyl)-2-methyl-1-oxo-1,4,5,8,9,11-hexahydropyrido[4′,3′:3,4]pyrazolo[5,1-d][1,2,5]oxadiazepine-10(2H)-carboxamide], the pEC50 was 7.00 to 9.00.

With `Cc1cc(NC(=O)N2CCc3nn4c(c3C2)C(=O)N(C)OC(CO)C4)c(F)cc1F` (single isomer, unassigned) [Compound 143_E1, (S*)—N-(2,4-difluoro-5-methylphenyl)-4-(hydroxymethyl)-2-methyl-1-oxo-1,4,5,8,9,11-hexahydropyrido[4′,3′:3,4]pyrazolo[5,1-d][1,2,5]oxadiazepine-10(2H)-carboxamide], the negative logarithm of the EC50 (pEC50) is 7.00 to 9.00.

With `Cc1c(F)c(F)cc(NC(=O)N2CCc3nn4c(c3C2)C(=O)N(C)OC(CO)C4)c1F` (single isomer, unassigned) [Compound 144_E1, (S*)-4-(hydroxymethyl)-2-methyl-1-oxo-N-(2,4,5-trifluoro-3-methylphenyl)-1,4,5,8,9,11-hexahydropyrido[4′,3′:3,4]pyrazolo[5,1-d][1,2,5]oxadiazepine-10(2H)-carboxamide], the pEC50 is 7.00 to 9.00.

Consider `CN1OC(CO)Cn2nc3c(c2C1=O)CN(C(=O)Nc1cc(C#N)ccc1F)CC3` (single isomer, unassigned) [Compound 145_E1, (S*)—N-(5-cyano-2-fluorophenyl)-4-(hydroxymethyl)-2-methyl-1-oxo-1,4,5,8,9,11-hexahydropyrido[4′,3′:3,4]pyrazolo[5,1-d][1,2,5]oxadiazepine-10(2H)-carboxamide], for which the negative-log EC50 (pEC50) was less than 6.00.

For `CN1OC(CO)Cn2nc3c(c2C1=O)CN(C(=O)Nc1cccc(C#N)c1F)CC3` (single isomer, unassigned) [Compound 146_E1, (S*)—N-(3-cyano-2-fluorophenyl)-4-(hydroxymethyl)-2-methyl-1-oxo-1,4,5,8,9,11-hexahydropyrido[4′,3′:3,4]pyrazolo[5,1-d][1,2,5]oxadiazepine-10(2H)-carboxamide], the pEC50 was 7.00 to 9.00.

Regarding `CN1OC(CO)Cn2nc3c(c2C1=O)CN(C(=O)Nc1cc(C(F)(F)F)c(F)cc1F)CC3` (single isomer, unassigned) [Compound 147_E1, (S*)—N-(2,4-difluoro-5-(trifluoromethyl)phenyl)-4-(hydroxymethyl)-2-methyl-1-oxo-1,4,5,8,9,11-hexahydropyrido[4′,3′:3,4]pyrazolo[5,1-d][1,2,5]oxadiazepine-10(2H)-carboxamide], the negative logarithm of the EC50 (pEC50) is 7.00 to 9.00.

In the case of `CN1OC(CO)Cn2nc3c(c2C1=O)CN(C(=O)Nc1cc(C(F)(F)F)ccc1F)CC3` (single isomer, unassigned) [Compound 148_E1, (S*)—N-(2-fluoro-5-(trifluoromethyl)phenyl)-4-(hydroxymethyl)-2-methyl-1-oxo-1,4,5,8,9,11-hexahydropyrido[4′,3′:3,4]pyrazolo[5,1-d][1,2,5]oxadiazepine-10(2H)-carboxamide], the negative-log EC50 (pEC50) is 6.30 to 7.00.

Take `CN1OC(CO)Cn2nc3c(c2C1=O)CN(C(=O)Nc1ccc(F)c(C(F)(F)F)c1F)CC3` (single isomer, unassigned) [Compound 149_E1, (S*)—N-(2,4-difluoro-3-(trifluoromethyl)phenyl)-4-(hydroxymethyl)-2-methyl-1-oxo-1,4,5,8,9,11-hexahydropyrido[4′,3′:3,4]pyrazolo[5,1-d][1,2,5]oxadiazepine-10(2H)-carboxamide]: the negative-log EC50 (pEC50) was 7.00 to 9.00.

As to `CN1OC(CO)Cn2nc3c(c2C1=O)CN(C(=O)Nc1cc(Br)ncc1F)CC3` (single isomer, unassigned) [Compound 150_E1, (S*)—N-(2-bromo-5-fluoropyridin-4-yl)-4-(hydroxymethyl)-2-methyl-1-oxo-1,4,5,8,9,11-hexahydropyrido[4′,3′:3,4]pyrazolo[5,1-d][1,2,5]oxadiazepine-10(2H)-carboxamide], the pEC50 is 7.00 to 9.00.

Turning to `CN1OC(CO)Cn2nc3c(c2C1=O)CN(C(=O)Nc1cc(F)c(F)c(F)c1F)CC3` (single isomer, unassigned) [Compound 151_E1, (S*)-4-(hydroxymethyl)-2-methyl-1-oxo-N-(2,3,4,5-tetrafluorophenyl)-1,4,5,8,9,11-hexahydropyrido[4′,3′:3,4]pyrazolo[5,1-d][1,2,5]oxadiazepine-10(2H)-carboxamide], the negative logarithm of the EC50 (pEC50) is 7.00 to 9.00.

As to `C[C@@H]1Cc2nn3c(c2CN1C(=O)Nc1ccc(F)c(Cl)c1F)C(=O)N(C)OC(C(=O)N(C)CC(F)F)C3` (single isomer, unassigned) [Compound 152_D1, (4S*,9R)—N10-(3-chloro-2,4-difluorophenyl)-N4-(2,2-difluoroethyl)-N4,2,9-trimethyl-1-oxo-1,4,5,8,9,11-hexahydropyrido[4′,3′:3,4]pyrazolo[5,1-d][1,2,5]oxadiazepine-4,10(2H)-dicarboxamide], the negative-log EC50 (pEC50) is 7.00 to 9.00.

For `CNC(=O)C1Cn2nc3c(c2C(=O)N(C)O1)CN(C(=O)Nc1ccc(F)c(C#N)c1F)[C@H](C)C3` (single isomer, unassigned) [Compound 156_D1, (4S*,9R)—N10-(3-cyano-2,4-difluorophenyl)-N4,2,9-trimethyl-1-oxo-1,4,5,8,9,11-hexahydropyrido[4′,3′:3,4]pyrazolo[5,1-d][1,2,5]oxadiazepine-4,10(2H)-dicarboxamide], the pEC50 was less than 6.00.

On to `CC(=O)NCC1Cn2nc3c(c2C(=O)N(C)O1)CN(C(=O)Nc1ccc(F)c(C#N)c1F)CC3` (single isomer, unassigned) [Compound 167_E1, (S*)-4-(acetamidomethyl)-N-(3-cyano-2,4-difluorophenyl)-2-methyl-1-oxo-1,4,5,8,9,11-hexahydropyrido[4′,3′:3,4]pyrazolo[5,1-d][1,2,5]oxadiazepine-10(2H)-carboxamide], for which the negative-log EC50 (pEC50) is 7.00 to 9.00.

`CC(=O)NCC1Cn2nc3c(c2C(=O)N(C)O1)CN(C(=O)Nc1ccc(F)c(C#N)c1)CC3` (single isomer, unassigned) [Compound 168_E1, (S*)-4-(acetamidomethyl)-N-(3-cyano-4-fluorophenyl)-2-methyl-1-oxo-1,4,5,8,9,11-hexahydropyrido[4′,3′:3,4]pyrazolo[5,1-d][1,2,5]oxadiazepine-10(2H)-carboxamide]: the pEC50 was 7.00 to 9.00.

As to `CC(=O)NCC1Cn2nc3c(c2C(=O)N(C)O1)CN(C(=O)Nc1ccc(F)c(Cl)c1F)CC3` (single isomer, unassigned) [Compound 169_E1, (S*)-4-(acetamidomethyl)-N-(3-chloro-2,4-difluorophenyl)-2-methyl-1-oxo-1,4,5,8,9,11-hexahydropyrido[4′,3′:3,4]pyrazolo[5,1-d][1,2,5]oxadiazepine-10(2H)-carboxamide], the pEC50 is 7.00 to 9.00.
